Active and inactive are the calls of the source. The rule behind the calls is not given here.
System: rodent carcinogenicity bioassays, tumor incidence
Assay: CCRIS carcinogenicity studies
Method in brief: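 NCI-built, expert-reviewed records of carcinogenicity and related test outcomes (mutagenicity, tumor promotion/inhibition) compiled from published and report sources, historical span 1985-2011, not updated.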

Measured: carcinogen call

CCOC(N)=O
active: Species: HAMSTER, Route: DERMAL, Tumor Site: Type of Lesion: INTEGUMENTARY SYSTEM (SKIN), MAMMARY GLAND active; positive | Species: HAMSTER, Route: INTRAPERITONEAL, Tumor Site: Type of Lesion: INTEGUMENTARY SYSTEM (SKIN) active; positive | Species: HAMSTER, Route: ORAL, Tumor Site: Type of Lesion: FORESTOMACH, INTEGUMENTARY SYSTEM (SKIN) active; positive | Species: HAMSTER, Route: SUBCUTANEOUS, Tumor Site: Type of Lesion: ADRENAL GLAND, FORESTOMACH, INTESTINES, INTEGUMENTARY SYSTEM (SKIN), Tumor Site: Type of Lesion: ADRENAL GLAND, FORESTOMACH, INTESTINES, INTEGUMENTARY SYSTEM (SKIN) active; positive | Species: MOUSE, Route: INHALATION, Tumor Site: Type of Lesion: LUNG active; positive | Species: MOUSE, Route: INTRAPERITONEAL, Tumor Site: Type of Lesion: HEMATOPOIETIC SYSTEM (LEUKEMIA), LYMPHATIC SYSTEM: LYMPHOMA, LUNG, LIVER, HARDERIAN GLAND, OVARIES, Tumor Site: Type of Lesion: HEMATOPOIETIC SYSTEM (LEUKEMIA), LYMPHATIC SYSTEM: LYMPHOMA, LUNG, LIVER, HARDERIAN GLAND, OVARIES active; positive | Species: MOUSE, Route: INTRAPERITONEAL, Tumor Site: Type of Lesion: LUNG, LIVER active; positive | Species: MOUSE, Route: ORAL, Tumor Site: Type of Lesion: HEMATOPOIETIC SYSTEM (LEUKEMIA): LYMPHOCYTIC LEUKEMIA, LYMPHATIC SYSTEM: LYMPHOSARCOMA, MAMMARY GLAND, LUNG, LIVER, THYM, Tumor Site: Type of Lesion: HEMATOPOIETIC SYSTEM (LEUKEMIA): LYMPHOCYTIC LEUKEMIA, LYMPHATIC SYSTEM: LYMPHOSARCOMA, MAMMARY GLAND, LUNG, LIVER, THYM active; positive | Species: MOUSE, Route: SUBCUTANEOUS, Tumor Site: Type of Lesion: HARDERIAN GLAND, HEMATOPOIETIC SYSTEM (LEUKEMIA), LIVER, LUNG, Tumor Site: Type of Lesion: HARDERIAN GLAND, HEMATOPOIETIC SYSTEM (LEUKEMIA), LIVER, LUNG active; positive | Species: MOUSE, Strain/Sex: B6C3F1/FEMALE (48/GROUP), Route: ORAL, Dose: 10, 30, 90 PPM IN DRINKING WATER (STUDY DURATION: 2 YRS), Dose: 10, 30, 90 PPM IN DRINKING WATER (STUDY DURATION: 2 YRS), Tumor Site: Type of Lesion: MAMMARY GLAND: ADENOACANTHOMA, ADENOCARCINOMA, OVARY: GRANULOSA CELL TUMOR (BENIGN OR MALIGNANT), SPLEEN: HEMANGIOSARCOM, Tumor Site: Type of Lesion: MAMMARY GLAND: ADENOACANTHOMA, ADENOCARCINOMA, OVARY: GRANULOSA CELL TUMOR (BENIGN OR MALIGNANT), SPLEEN: HEMANGIOSARCOM active; positive ; marginal but not significant increases of hemangiosarcomas occurred i | Species: MOUSE, Strain/Sex: B6C3F1/MALE (48/GROUP), Route: ORAL, Dose: 10, 30, 90 PPM IN DRINKING WATER (STUDY DURATION: 2 YRS), Dose: 10, 30, 90 PPM IN DRINKING WATER (STUDY DURATION: 2 YRS), Tumor Site: Type of Lesion: HEART: HEMANGIOSARCOMA, FORESTOMACH: SQUAMOUS CELL PAPILLOMA OR CARCINOMA (COMBINED), SKIN: SQUAMOUS CELL PAPILLOMA OR C, Tumor Site: Type of Lesion: HEART: HEMANGIOSARCOMA, FORESTOMACH: SQUAMOUS CELL PAPILLOMA OR CARCINOMA (COMBINED), SKIN: SQUAMOUS CELL PAPILLOMA OR C active; positive | Species: MOUSE, Strain/Sex: B6C3F1/MALE, FEMALE (48/GROUP), Route: ORAL, Dose: 10, 30, 90 PPM IN DRINKING WATER (STUDY DURATION: 2 YRS), Dose: 10, 30, 90 PPM IN DRINKING WATER (STUDY DURATION: 2 YRS), Tumor Site: Type of Lesion: LIVER: HEMANGIOSARCOMA, HEPATOCELLULAR ADENOMA OR CARCINOMA (COMBINED), LUNG: ADENOMA OR CARCINOMA (COMBINED): HARDERIAN active; positive | Species: MOUSE, Strain/Sex: B6C3F1/MALE, Route: INTRAPERITONEAL, Dose: 0, 125 UG/G BW IN 10 µL TRIOCTANOIN ONCE (STUDY DURATION: 9 MO), Tumor Site: Type of Lesion: LIVER: HEPATOMA active; positive | Species: MOUSE, Strain/Sex: B6C3F1/MALE, Route: ORAL, Dose: 0, 0.6, 3, 6, 60, 600 PPM IN DRINKING WATER FOR 70 WK (STUDY DURATION: 70 WK), Dose: 0, 0.6, 3, 6, 60, 600 PPM IN DRINKING WATER FOR 70 WK (STUDY DURATION: 70 WK), Tumor Site: Type of Lesion: LUNG: ALVEOLAR/BRONCHIOLAR CARCINOMA, ALVEOLAR/BRONCHIOLAR ADENOMA, LIVER: ANGIOSARCOMA, HEMANGIOMA active; positive | Species: MOUSE, Strain/Sex: C57BL, Route: INTRAPERITONEAL, Dose: 1.00 MG/G 10 TIMES AT WEEKLY INTERVALS, Tumor Site: Type of Lesion: THYMUS GLAND: LYMPHOSARCOMA, LUNG: ADENOMA active; positive | Species: MOUSE, Strain/Sex: CTM/MALE,FEMALE, Route: ORAL, Dose: 0, 0.4% IN DRINKING WATER, 1 OR 2 10-D TREATMENTS OR 1, 2 OR 3 5-D TREATMENTS WITH 10-D INTERVALS BETWEEN TREATMENTS, Dose: 0, 0.4% IN DRINKING WATER, 1 OR 2 10-D TREATMENTS OR 1, 2 OR 3 5-D TREATMENTS WITH 10-D INTERVALS BETWEEN TREATMENTS, Tumor Site: Type of Lesion: LUNG: ADENOMA, LYMPHOSARCOMA active; positive | Species: MOUSE, Strain/Sex: HR/HR/MALE, FEMALE, Route: DERMAL, Dose: 0, 10, 20, 40% IN 200 µL ACETONE 2/WK FOR STUDY DURATION (STUDY DURATION: 56-60 WK), Dose: 0, 10, 20, 40% IN 200 µL ACETONE 2/WK FOR STUDY DURATION (STUDY DURATION: 56-60 WK), Tumor Site: Type of Lesion: SKIN: CARCINOMA, PAPILLOMA, LUNG: ADENOMA active; positive | Species: MOUSE, Strain/Sex: HR/HR/MALE, FEMALE, Route: DERMAL, Dose: 0, 15, 30, 75% IN PROPYLENE GLYCOL 2/WK FOR STUDY DURATION (STUDY DURATION: 56-60 WK), Dose: 0, 15, 30, 75% IN PROPYLENE GLYCOL 2/WK FOR STUDY DURATION (STUDY DURATION: 56-60 WK), Tumor Site: Type of Lesion: SKIN: CARCINOMA, PAPILLOMA, LUNG: ADENOMA active; positive | Species: MOUSE, Strain/Sex: ICR/FEMALE, Route: INHALATION, Dose: 0, 0.25 UG/ML AIR FOR 0.25 D (TOTAL DOSE 0.25 UG/ML/D) (STUDY DURATION: 5 MO), Tumor Site: Type of Lesion: LUNG: TUMOR, HEMATOPOIETIC SYSTEM: LEUKEMIA active; positive | Species: MOUSE, Strain/Sex: ICR/FEMALE, Route: INHALATION, Dose: 0, 0.25 UG/ML AIR FOR 3 D (TOTAL DOSE 0.75 UG/ML/D) (STUDY DURATION: 5 MO), Tumor Site: Type of Lesion: LUNG: TUMOR, HEMATOPOIETIC SYSTEM: LEUKEMIA active; positive
